Data taken from ChEMBL document CHEMBL3045195, “Comparison of the activity of non-steroidal ecdysone agonists between dipteran and lepidopteran insects, using cell-based EcR reporter assays” (Pest Manag Sci, 2010).
Active and inactive are the calls of the source. The rule behind the calls is not given here.

Columns and labels:
Format in all cases: cell-based
Ecdysone receptor [1] = biological target: T1, Ecdysone receptor (Drosophila melanogaster, UniProt P20153+P34021); assay: (§1) Agonist activity at ecdysone receptor in Drosophila melanogaster S2 cells after 24 hr by luciferase reporter gene assay
T1 sequence (P34021 whole entry): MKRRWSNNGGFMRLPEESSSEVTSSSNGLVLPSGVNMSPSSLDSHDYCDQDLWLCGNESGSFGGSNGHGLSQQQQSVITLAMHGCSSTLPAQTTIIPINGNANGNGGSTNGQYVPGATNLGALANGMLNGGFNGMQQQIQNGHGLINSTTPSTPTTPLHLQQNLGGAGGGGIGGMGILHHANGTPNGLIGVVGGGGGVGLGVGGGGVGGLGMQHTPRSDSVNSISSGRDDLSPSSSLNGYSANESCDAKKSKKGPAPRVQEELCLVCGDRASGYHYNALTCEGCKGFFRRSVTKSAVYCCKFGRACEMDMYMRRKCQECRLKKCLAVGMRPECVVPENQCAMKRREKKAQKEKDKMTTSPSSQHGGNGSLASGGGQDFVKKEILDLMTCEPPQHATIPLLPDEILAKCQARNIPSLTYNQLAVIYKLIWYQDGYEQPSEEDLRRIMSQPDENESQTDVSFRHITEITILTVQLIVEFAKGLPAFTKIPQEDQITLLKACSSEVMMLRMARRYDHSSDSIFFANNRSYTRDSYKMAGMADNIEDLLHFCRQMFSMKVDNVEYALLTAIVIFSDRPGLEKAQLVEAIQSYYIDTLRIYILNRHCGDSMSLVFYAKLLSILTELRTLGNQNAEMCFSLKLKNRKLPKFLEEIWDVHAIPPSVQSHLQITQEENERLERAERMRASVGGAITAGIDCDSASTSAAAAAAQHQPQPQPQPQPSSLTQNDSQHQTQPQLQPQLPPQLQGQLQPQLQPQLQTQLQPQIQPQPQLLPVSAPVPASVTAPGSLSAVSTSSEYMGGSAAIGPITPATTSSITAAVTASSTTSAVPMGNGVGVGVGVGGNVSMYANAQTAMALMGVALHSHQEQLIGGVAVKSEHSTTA
T1 sequence (P20153 whole entry): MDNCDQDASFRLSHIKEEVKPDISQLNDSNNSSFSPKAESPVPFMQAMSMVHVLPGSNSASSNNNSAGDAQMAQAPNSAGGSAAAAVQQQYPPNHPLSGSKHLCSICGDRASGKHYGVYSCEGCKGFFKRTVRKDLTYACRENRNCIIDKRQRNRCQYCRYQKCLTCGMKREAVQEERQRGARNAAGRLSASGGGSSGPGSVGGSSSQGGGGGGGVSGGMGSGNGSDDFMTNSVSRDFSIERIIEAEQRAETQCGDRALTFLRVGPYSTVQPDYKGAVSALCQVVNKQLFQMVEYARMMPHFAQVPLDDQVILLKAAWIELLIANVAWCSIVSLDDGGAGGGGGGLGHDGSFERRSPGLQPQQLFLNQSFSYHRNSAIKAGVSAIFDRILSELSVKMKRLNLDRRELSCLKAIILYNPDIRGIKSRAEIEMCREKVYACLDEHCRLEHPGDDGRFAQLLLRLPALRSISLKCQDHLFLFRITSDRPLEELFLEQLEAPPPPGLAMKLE

[2] = biological target: T2, Ecdysone receptor (Drosophila melanogaster) (UniProt P34021+P20153); assay: Agonist activity at ecdysone receptor in Drosophila melanogaster S2 cells at 100 uM after 24 hr by luciferase reporter gene assay relative to 20-hydroxyecdysone
Ecdysone receptor [3] = biological target: T3, Ecdysone receptor (Bombyx mori, UniProt P49881); assay: Agonist activity at ecdysone receptor in Bombyx mori Bm5 cells after 24 hr by luciferase reporter gene assay
T3 sequence (P49881 whole entry): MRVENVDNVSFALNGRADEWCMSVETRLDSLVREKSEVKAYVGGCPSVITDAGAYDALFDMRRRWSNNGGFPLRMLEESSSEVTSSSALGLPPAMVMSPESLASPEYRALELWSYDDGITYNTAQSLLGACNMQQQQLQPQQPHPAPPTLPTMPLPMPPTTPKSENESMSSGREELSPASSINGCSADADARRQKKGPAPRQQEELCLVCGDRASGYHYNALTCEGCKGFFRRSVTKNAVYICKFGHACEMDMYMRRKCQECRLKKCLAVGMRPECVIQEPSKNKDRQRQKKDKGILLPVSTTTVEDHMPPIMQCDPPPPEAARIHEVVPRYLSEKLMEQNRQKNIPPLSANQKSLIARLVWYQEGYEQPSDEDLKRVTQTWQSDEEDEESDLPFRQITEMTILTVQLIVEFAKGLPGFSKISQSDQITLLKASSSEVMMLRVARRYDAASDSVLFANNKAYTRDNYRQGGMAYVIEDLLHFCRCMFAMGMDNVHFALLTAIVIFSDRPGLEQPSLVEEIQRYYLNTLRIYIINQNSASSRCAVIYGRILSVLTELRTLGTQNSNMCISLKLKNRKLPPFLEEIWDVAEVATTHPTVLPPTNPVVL

[4] = biological target: T2, Ecdysone receptor (Drosophila melanogaster); assay: as §1

Row | EC50 (Ecdysone receptor [1]) [µM] | Efficacy [2] [%] | EC50 (Ecdysone receptor [3]) [µM] | Structure (SMILES) | pEC50 [4]
1 | 81.3 | 52 | 0.115 | CC(C)(C)N(NC(=O)c1ccc(Cl)cc1)C(=O)c1ccccc1Cl | –
2 | – | – | 14.5 | Cc1cc(C)cc(C(=O)NN(C(=O)CCC(C)C)C(C)(C)C)c1 | inactive
3 | 13.2 | 80 | 0.191 | CC(C)(C)N(NC(=O)c1cccc(Br)c1)C(=O)c1ccccc1Cl | –
4 | – | – | > 100 | CN(NC(=O)c1ccccc1)C(=O)c1ccccc1 | inactive
5 | – | – | 11.7 | CCCCCCC(=O)N(NC(=O)c1ccc(CC)cc1)C(C)(C)C | inactive
6 | 93.3 | 52 | 0.603 | CC(C)(C)N(NC(=O)c1ccc(C#N)cc1)C(=O)c1ccccc1Cl | –
7 | 97.7 | 50 | 0.589 | CCc1ccccc1C(=O)N(NC(=O)c1ccccc1)C(C)(C)C | –
8 | – | – | – | Cc1cc(C)cc(C(=O)C2(NC(=O)C(F)(F)F)CCCCC2)c1 | inactive
9 | 107 | 46 | 1.62 | Cc1ccc(C)c(C(=O)NN(C(=O)c2ccccc2Cl)C(C)(C)C)c1 | –
10 | 87.1 | 54 | 1.29 | CC(C)(C)N(NC(=O)c1ccccc1I)C(=O)c1ccccc1Cl | –
11 | 45.7 | 60 | 0.0661 | COc1cccc(C(=O)NN(C(=O)c2cc(C)cc(C)c2)C(C)(C)C)c1 | –
12 | – | – | – | CCc1ccc(C(=O)NC(C(=O)c2cc(C)cc(C)c2)C(C)(C)C)cc1 (racemic) | inactive
13 | 66.1 | 60 | 0.0871 | Cc1ccc(C(=O)NN(C(=O)c2ccccc2Cl)C(C)(C)C)cc1C | –
14 | 72.4 | 58 | 0.0525 | COc1cccc(C(=O)NN(C(=O)c2ccccc2Cl)C(C)(C)C)c1 | –
15 | 25.7 | 76 | 0.0692 | CC(C)(C)N(NC(=O)c1cccc(F)c1)C(=O)c1ccccc1Cl | –
16 | 60.3 | 59 | 0.316 | CC(C)(C)N(NC(=O)c1ccccc1Br)C(=O)c1ccccc1Cl | –
17 | 107 | 48 | 0.603 | Cc1cccc(C(=O)NN(C(=O)c2ccccc2Cl)C(C)(C)C)c1 | –
18 | 37.2 | 62 | 0.389 | CC(C)(C)N(NC(=O)c1ccc(F)cc1)C(=O)c1ccccc1Cl | –
19 | 11.5 | 76 | 0.02 | Cc1cccc(C(=O)NN(C(=O)c2ccccc2Cl)C(C)(C)C)c1C | –
20 | 7.76 | 74 | 0.00933 | CC(C)(C)N(NC(=O)c1cccc(Cl)c1Cl)C(=O)c1ccccc1Cl | –
21 | – | – | 46.8 | CC(C)(C)N(NC(=O)c1ccccc1)C(=O)C1CCCCC1 | inactive
22 | > 100 | 6 | 25.7 | O=C(NN(C(=O)c1ccccc1)c1ccccc1)c1ccccc1 | –
23 | 16.6 | 77 | 0.0155 | COc1cccc(C(=O)NN(C(=O)c2ccccc2Cl)C(C)(C)C)c1C | –
24 | – | – | – | CCC(CC)(NC(=O)c1ccc2c(c1C)CCCO2)C(=O)c1cc(C)cc(C)c1 | inactive
25 | 36.3 | 67 | 0.955 | CC(C)(C)N(NC(=O)c1cccc(C#N)c1)C(=O)c1ccccc1Cl | –
26 | 148 | 40 | 0.117 | CC(C)(C)N(NC(=O)c1ccccc1)C(=O)c1ccc(Cl)cc1Cl | –
27 | – | – | – | CCc1ccc(C(=O)NC(CC)(CC)C(=O)c2cc(C)cc(C)c2)cc1 | inactive
28 | 12 | 71 | 0.0525 | CCOc1cccc(C(=O)NN(C(=O)c2cc(C)cc(C)c2)C(C)(C)C)c1C | –

Row | Structure (SMILES) | EC50 (Ecdysone receptor [1]) [µM] | Efficacy [2] [%] | EC50 (Ecdysone receptor [3]) [µM] | pEC50 [4]
29 | CCCCCCC(=O)NN(C(=O)c1ccccc1Cl)C(C)(C)C | > 100 | 10 | 0.741 | –
30 | CCCCCC(=O)N(NC(=O)c1ccc(CC)cc1)C(C)(C)C | – | – | 2.82 | inactive
31 | Cc1cc(C)cc(C(=O)N(NC(=O)CCC(C)C)C(C)(C)C)c1 | > 100 | 35 | 0.0912 | –
32 | CC(C)(C)N(NC(=O)c1ccccc1F)C(=O)c1ccccc1Cl | 33.9 | 73 | 0.0513 | –
33 | CCc1ccc(C(=O)NN(C(=O)C2CC=CCC2)C(C)(C)C)cc1 (configuration not stated) | > 100 | 1 | 1 | –
34 | Cc1ccccc1C(=O)NN(C(=O)c1ccccc1Cl)C(C)(C)C | 25.7 | 83 | 0.0724 | –
35 | CCc1ccc(C(=O)NN(C(=O)c2ccccc2)C(C)(C)C)cc1 | 5.5 | 52 | 0.0049 | –
36 | CC(C)(C)N(Cc1ccccc1)NC(=O)c1ccccc1 | > 100 | 1 | – | –
37 | CN(C(=O)c1ccccc1)N(C)C(=O)c1ccccc1 | – | – | > 100 | inactive
38 | COc1ccc(C(=O)NN(C(=O)c2ccccc2Cl)C(C)(C)C)cc1 | 11.2 | 112 | 0.0513 | –
39 | CCCCN(C(=O)c1ccccc1)N(C(=O)c1ccccc1)C(C)(C)C | – | – | > 100 | inactive
40 | CCCCN(NC(=O)c1ccccc1)C(=O)c1ccccc1 | > 100 | 4 | 7.08 | –
41 | O=C(NN(C(=O)c1ccccc1)C1CCCCC1)c1ccccc1 | > 100 | 18 | 0.891 | –
42 | Cc1cc(C)cc(C(=O)NN(C(=O)CCCC(C)C)C(C)(C)C)c1 | – | – | > 100 | inactive
43 | CC(C)CN(NC(=O)c1ccccc1)C(=O)c1ccccc1 | > 100 | 33 | 2.88 | –
44 | CCCCCCC(=O)N(NC(=O)c1ccccc1)C(C)(C)C | – | – | 7.24 | inactive
45 | CCc1ccc(C(=O)NN(C(=O)CCC(C)C)C(C)(C)C)cc1 | – | – | 0.832 | inactive
46 | Cc1cc(C)cc(C(=O)N(NC(=O)c2ccccc2)C(C)(C)C)c1 | 66.1 | 57 | 0.0692 | –
47 | CCCCCCCCCC(=O)NN(C(=O)c1cc(C)cc(C)c1)C(C)(C)C | – | – | 1.55 | inactive
48 | Cc1cc(C)c(Cl)c(C(=O)N(NC(=O)c2ccccc2)C(C)(C)C)c1 | > 100 | 2 | – | –
49 | CC(C)c1ccc(C(=O)NN(C(=O)c2ccccc2Cl)C(C)(C)C)cc1 | 12 | 88 | 0.0245 | –
50 | CCCCCC(=O)NN(C(=O)c1cc(C)cc(C)c1)C(C)(C)C | > 100 | 36 | 0.0794 | –
51 | CCc1ccc(C(=O)NN(C(=O)c2cccc3ccccc23)C(C)(C)C)cc1 | 10.5 | 53 | 0.0132 | –
52 | O=C(NN(CC1CCCCC1)C(=O)c1ccccc1)c1ccccc1 | > 100 | 1 | 1.7 | –
53 | CCCCC(=O)NN(C(=O)c1cc(C)cc(C)c1)C(C)(C)C | – | – | 1.86 | inactive
